From ChEMBL document CHEMBL1133485, “3alpha-(4-Substituted phenyl)nortropane-2beta-carboxylic acid methyl esters show selective binding at the norepinephrine transporter” (Bioorg Med Chem Lett, 2000) come the findings set out here.

Test [1] addresses T1, Norepinephrine transporter (Rattus norvegicus, UniProt Q9WTR4). Kind of test: Inhibition of 0.5 nM [3H]nisoxetine binding to Norepinephrine transporter.
Test [2] deals with T1, Norepinephrine transporter. Kind of test: Inhibition of 0.5 nM [3H]nisoxetine binding toNorepinephrine transporter.
The target in test [3] is Sodium-dependent dopamine transporter (Rattus norvegicus, UniProt P23977). Description: Displacement of 0.5 nM [3H]WIN-35248 from Dopamine transporter.
Test [4] has as its target T2, Sodium-dependent serotonin transporter (Rattus norvegicus, UniProt P31652). Description: Inhibition of 0.2 nM [3H]paroxetine binding to Serotonin transporter.
Test [5] addresses T2, Sodium-dependent serotonin transporter.

T1 sequence (Q9WTR4 whole entry): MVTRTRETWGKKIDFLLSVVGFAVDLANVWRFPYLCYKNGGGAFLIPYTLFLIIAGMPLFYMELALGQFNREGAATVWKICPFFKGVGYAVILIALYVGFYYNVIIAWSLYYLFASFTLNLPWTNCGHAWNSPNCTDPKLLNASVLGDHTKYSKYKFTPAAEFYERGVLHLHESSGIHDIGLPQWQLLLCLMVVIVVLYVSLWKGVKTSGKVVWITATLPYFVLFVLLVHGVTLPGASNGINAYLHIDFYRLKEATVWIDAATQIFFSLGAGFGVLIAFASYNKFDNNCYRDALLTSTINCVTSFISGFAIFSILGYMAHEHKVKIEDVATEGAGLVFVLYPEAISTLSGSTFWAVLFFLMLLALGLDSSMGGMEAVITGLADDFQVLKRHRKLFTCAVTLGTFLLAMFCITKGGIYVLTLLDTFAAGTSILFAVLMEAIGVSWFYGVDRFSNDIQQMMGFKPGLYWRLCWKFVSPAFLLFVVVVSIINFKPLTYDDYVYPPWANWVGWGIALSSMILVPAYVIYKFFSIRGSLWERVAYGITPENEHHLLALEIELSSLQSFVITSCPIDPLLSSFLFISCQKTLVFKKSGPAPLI
T2 sequence (P31652 whole entry): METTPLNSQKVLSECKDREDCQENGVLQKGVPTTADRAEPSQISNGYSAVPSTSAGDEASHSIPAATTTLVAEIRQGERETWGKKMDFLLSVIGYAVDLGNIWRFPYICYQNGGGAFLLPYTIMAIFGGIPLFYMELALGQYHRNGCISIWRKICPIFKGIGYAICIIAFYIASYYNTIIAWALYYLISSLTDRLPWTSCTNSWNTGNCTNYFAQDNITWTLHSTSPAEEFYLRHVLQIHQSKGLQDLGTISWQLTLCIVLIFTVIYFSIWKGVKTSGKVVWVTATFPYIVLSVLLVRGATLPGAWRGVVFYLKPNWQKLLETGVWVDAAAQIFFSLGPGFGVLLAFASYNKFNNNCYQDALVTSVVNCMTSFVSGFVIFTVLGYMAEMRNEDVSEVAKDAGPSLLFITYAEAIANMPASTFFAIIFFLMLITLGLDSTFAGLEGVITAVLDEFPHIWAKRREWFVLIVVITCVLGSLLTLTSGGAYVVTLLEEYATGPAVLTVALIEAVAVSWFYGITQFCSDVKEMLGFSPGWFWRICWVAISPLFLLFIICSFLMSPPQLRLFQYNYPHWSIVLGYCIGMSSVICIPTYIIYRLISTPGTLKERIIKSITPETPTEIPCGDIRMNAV
Chain of Sodium-dependent dopamine transporter (P23977 whole entry): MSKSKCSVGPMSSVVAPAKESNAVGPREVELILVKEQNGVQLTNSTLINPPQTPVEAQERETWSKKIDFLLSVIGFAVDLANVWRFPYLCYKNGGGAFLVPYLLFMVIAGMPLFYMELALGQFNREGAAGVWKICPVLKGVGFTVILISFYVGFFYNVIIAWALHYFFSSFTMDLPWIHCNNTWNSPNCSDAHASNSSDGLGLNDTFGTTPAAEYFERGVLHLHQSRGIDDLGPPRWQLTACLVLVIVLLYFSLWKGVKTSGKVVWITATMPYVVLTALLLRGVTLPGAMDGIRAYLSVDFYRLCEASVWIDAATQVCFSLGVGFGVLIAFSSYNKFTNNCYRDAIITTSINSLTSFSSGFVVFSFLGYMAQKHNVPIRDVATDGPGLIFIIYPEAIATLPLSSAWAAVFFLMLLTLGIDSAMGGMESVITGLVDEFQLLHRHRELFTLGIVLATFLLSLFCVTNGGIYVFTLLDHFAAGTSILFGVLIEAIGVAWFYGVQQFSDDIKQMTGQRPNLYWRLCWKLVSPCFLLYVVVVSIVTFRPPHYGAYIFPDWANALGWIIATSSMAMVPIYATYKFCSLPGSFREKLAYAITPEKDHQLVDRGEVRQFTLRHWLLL

For `COC(=O)C1C(c2ccc(C)cc2)CC2CCC1N2C` (stereo in doubt; 5c), affinity in test [1] was put at a Ki of 160 nM. In test [2], this compound registered an IC50 of 270 nM.
In test [1], `COC(=O)C1C(c2ccc(C)cc2)CC2CCC1N2C` (stereo in doubt; 6c) had a Ki of 36 nM.
As to `COC(=O)C1C2CCC(CC1c1ccc(F)cc1)N2` (stereo in doubt; 4a), the values for the IC50 in test [3], in test [2] and in test [4] were 32.6 nM, 9.8 nM and 92.4 nM, respectively. Besides, the inhibitory constant (Ki) in test [1] is 5.9 nM; in test [5], 8.4 nM.
On to `COC(=O)C1C2CCC(CC1c1ccc(C)cc1)N2` (stereo in doubt; 7c), for which the IC50 in test [3] came to 0.84 nM; in test [2] it was 7.2 nM; in test [4], 135 nM. Also, the Ki in test [1] is 4.4 nM; in test [5], 12 nM.
Take `COC(=O)C1C2CCC(CC1c1ccc(Cl)cc1)N2` (stereo in doubt; 4b): the IC50 in test [3] stood at 3.1 nM; in test [2], 5.14 nM; in test [4], 53 nM. For the same compound, the values for the Ki in test [1] and in test [5] were 3.1 nM and 4.8 nM, respectively.
`COC(=O)C1C(c2ccc(Cl)cc2)CC2CCC1N2C` (stereo in doubt; 6b) returned a Ki in test [5] of 4 nM. This counts as single-digit nanomolar.
Still for that read-out and setting: to `COC(=O)C1C(c2ccc(Cl)cc2)CC2CCC1N2C` (stereo in doubt; 5b) belongs 91 nM.
Consider `COC(=O)[C@H]1[C@@H](c2ccc(F)cc2)C[C@H]2CC[C@H]1N2C` (stereo in doubt; 6a), for which the Ki is 503 nM in test [1] and 69 nM in test [5].
For the compound `COC(=O)C1C2CCC(CC1c1ccc(C)cc1)N2` (stereo in doubt; 4c), the IC50 was 33.6 nM in test [3], 9 nM in test [2] and 500 nM in test [4]. The Ki in test [1] was 5.2 nM; in test [5], 46 nM.
Regarding `COC(=O)[C@H]1[C@@H](c2ccc(F)cc2)C[C@H]2CC[C@H]1N2C` (stereo in doubt; 5a), the Ki came to 741 nM in test [1] and 460 nM in test [5].
Take `COC(=O)C1C2CCC(CC1c1ccc(Cl)cc1)N2` (stereo in doubt; 7b): the Ki in test [1] was determined as 3.28 nM; in test [5], 0.38 nM. In test [2], this compound had an IC50 of 5.45 nM.
Regarding `COC(=O)C1C2CCC(CC1c1ccc(F)cc1)N2` (stereo in doubt; 7a), the IC50 is 4.4 nM in test [3] and 18.8 nM in test [2]. For the same compound, the Ki in test [1] came out at 11.3 nM; in test [5], 6.24 nM.
